These results are taken from US20220280661A1, “GLUCOCORTICOID RECEPTOR RADIOLIGANDS AND METHODS FOR THEIR PREPARATION AND USE” (The Regents of the University of California, priority 2019, published 2022).

One data set has as its system PC3 tumors. Description: [18F]-YJH08 uptake in PC3 tumors implanted in the renal capsule. In kind it is in vivo, mouse. Particulars: renal capsule implant, nu/nu mice. Here is the method:
For tumor imaging studies, male nu/nu mice were used for the renal capsule tumor implants. The mice were anesthetized with isofluorane (2-3%) and performed with a dorsal midline incision (0.5 cm). With pressure applied on the muscle wall, one kidney was pulled gently and carefully through the small incision. PC3 cells ([…] in 50 μL PBS) were injected under the kidney capsule, which was lifted from the kidney parenchyma. The kidney was placed into the mouse, and the incision closed with 3 surgical sutures. Carprofen (5-10 mg/kg) was administered to the mice during recovery. Mice were observed carefully over 24 hours for the signs of post-operative bleeding, pain and (or) other complications. After surgery, a 14 T Agilent small animal MRI was used to monitor the tumor progression. Animals were studied approximately 10 days post injection of tumor cells.
Lastly, digital autoradiography of the affected kidney was applied to define relative uptake of the radiotracer in the tumor and normal kidney parenchyma (FIGS. 5B and 5C). The radiotracer uptake in the tumor was qualitatively much higher than the level observed in the kidney.

A further data set deals with T1, ER (Homo sapiens, UniProt P03372).
T1 construct: MCF7 (PR, ER); endogenous in cells; host or cells: MCF7
T1 sequence (P03372 1-595): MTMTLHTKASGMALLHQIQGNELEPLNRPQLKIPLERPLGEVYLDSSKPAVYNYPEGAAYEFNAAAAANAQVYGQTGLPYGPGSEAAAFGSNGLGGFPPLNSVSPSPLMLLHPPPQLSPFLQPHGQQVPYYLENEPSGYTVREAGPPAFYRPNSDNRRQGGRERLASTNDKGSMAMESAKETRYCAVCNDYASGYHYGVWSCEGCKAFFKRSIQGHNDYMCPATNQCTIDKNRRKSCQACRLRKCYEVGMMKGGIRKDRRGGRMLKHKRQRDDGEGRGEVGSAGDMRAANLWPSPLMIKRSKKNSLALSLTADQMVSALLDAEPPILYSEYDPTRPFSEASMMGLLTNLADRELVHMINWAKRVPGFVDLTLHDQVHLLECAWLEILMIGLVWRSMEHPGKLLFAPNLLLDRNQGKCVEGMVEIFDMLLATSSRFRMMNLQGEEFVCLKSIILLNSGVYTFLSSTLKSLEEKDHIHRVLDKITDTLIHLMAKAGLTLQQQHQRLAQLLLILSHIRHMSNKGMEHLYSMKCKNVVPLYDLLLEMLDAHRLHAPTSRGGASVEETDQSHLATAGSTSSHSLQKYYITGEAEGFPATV
Briefly: 3H-ligand displacement assay on cells, ER (MCF7). In kind it is binding. Here is the method:
(§1) The affinity of YJH08 for GR and the other type 1 subfamily 3 nuclear hormone receptors was evaluated using ^3H-ligand displacement assays on cells. The Kd for subfamily 3 class C nuclear hormone receptors was determined on cells by displacing ^3H-steroidal agonists for the respective receptor. […] The Kd was determined using the following cell lines: DU145 (GR), LNCaP-AR (AR), MCF7 (PR, ER), and HEK293 transiently overexpressing full length human MR.
(§2) The cold ligands and ^3H-steroids were co-incubated on cells in PBS at room temperature for one hour. Following incubation, the cells were washed twice with ice cold PBS and the unbound activity was retained for analysis. The cells were lysed with 1 mL of 1M NaOH and collected. Bound and unbound fractions were counted in a liquid scintillation counter and expressed as a percentage of the total activity added per equal relative number of cells. […] These experiments were performed at three concentrations of experimental ligand (1 pM, 100 nM and 10 μM), and a linear extrapolation was used to subtract the non-specific component of binding from each treatment condition. The specific binding component was plotted against the log of the competing ligand and curve fit using a non-linear regression algorithm with PRISM software.

A further data set has as its target T2, full length human MR (Homo sapiens, UniProt P08235).
T2 construct: HEK293 transiently overexpressing full length human MR; expressed in transfected cells; host or cells: HEK293
T2 sequence (P08235 1-984): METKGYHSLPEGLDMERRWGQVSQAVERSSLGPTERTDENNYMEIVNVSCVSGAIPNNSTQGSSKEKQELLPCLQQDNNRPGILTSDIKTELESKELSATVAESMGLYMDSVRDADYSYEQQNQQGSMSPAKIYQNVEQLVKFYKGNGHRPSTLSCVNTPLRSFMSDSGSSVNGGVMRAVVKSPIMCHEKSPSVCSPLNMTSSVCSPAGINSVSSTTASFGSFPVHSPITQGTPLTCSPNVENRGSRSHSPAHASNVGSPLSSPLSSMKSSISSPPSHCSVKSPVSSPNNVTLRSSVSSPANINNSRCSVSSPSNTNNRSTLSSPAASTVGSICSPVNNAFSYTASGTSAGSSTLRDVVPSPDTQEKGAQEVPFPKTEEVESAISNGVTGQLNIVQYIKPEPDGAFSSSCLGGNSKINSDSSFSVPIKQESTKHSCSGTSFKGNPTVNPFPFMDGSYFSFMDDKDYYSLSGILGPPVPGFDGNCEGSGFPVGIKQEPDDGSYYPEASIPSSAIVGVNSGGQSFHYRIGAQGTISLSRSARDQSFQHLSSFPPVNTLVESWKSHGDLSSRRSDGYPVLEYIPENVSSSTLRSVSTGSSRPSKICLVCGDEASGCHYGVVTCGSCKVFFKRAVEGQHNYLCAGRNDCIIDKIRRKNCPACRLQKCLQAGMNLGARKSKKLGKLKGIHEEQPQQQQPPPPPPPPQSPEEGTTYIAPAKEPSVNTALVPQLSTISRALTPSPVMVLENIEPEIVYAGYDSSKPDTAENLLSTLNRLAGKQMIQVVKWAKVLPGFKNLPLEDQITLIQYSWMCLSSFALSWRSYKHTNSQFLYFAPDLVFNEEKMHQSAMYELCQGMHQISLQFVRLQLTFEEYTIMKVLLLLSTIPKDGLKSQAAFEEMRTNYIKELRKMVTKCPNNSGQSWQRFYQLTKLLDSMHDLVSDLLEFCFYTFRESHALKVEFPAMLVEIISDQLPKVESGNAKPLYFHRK
Description: 3H-ligand displacement assay on cells, MR (HEK293 overexpressing MR). Type of data set: binding. As to the method:
as §1, §2

Take `COc1cccc2c1-c1ccc3c(c1C(Cc1ccc([18F])cc1)O2)C(C)=CC(C)(C)N3` (racemic) [[18F]-YJH08, [^18F]-5-(4-fluorobenzyl)-10-methoxy-2,2,4-trimethyl-2,5-dihydro-1H-chromeno[3,4-f]quinoline]: the “radiotracer uptake in PC3 tumor” value in the data set with PC3 tumors is reported as around 3 % ID/g.
With `COc1cccc2c1-c1ccc3c(c1C(Cc1ccc(F)cc1)O2)C(C)=CC(C)(C)N3` (racemic) [YJH08, 5-(4-fluorobenzyl)-10-methoxy-2,2,4-trimethyl-2,5-dihydro-1H-chromeno[3,4-f]quinoline], the Kd (in general, the constant that tells how readily two partners part at equilibrium) was 19 µM on ER and 0.29 µM at full length human MR.
